Experimental data from US9034876B2, “Treatment of chronic inflammation with a 1,2,4-triazolo [1,5a] pyridine derivative” (Cephalon, Inc., priority 2010, dated 2015).

Key:
[1] = test system: collagen-antibody-induced arthritis (CAIA); test: Collagen-antibody-induced arthritis (CAIA) model, paw size and clinical score; assay type: in vivo, female DBA/1 mice; settings: 55 mg/kg p.o. b.i.d., day 13
Protocol: Female DBA/1 mice were injected i.v. (intravenous) with purified anti-collagen type II antibodies, then given 25 μg of LPS (lipopolysaccharide), i.p. (intraperitoneal), three days later to induce arthritis by day 5. Mice that met the arthritis criteria score of 1 per paw were entered into the study. Compound A was administered orally, b.i.d. (twice daily), for all doses tested; Dex (Dexamethasone) was administered at 1.5 mg/kg three times a week, i.p.; and vehicle (PEG400+1% DMSO) was administered orally.
Anti-collagen type II antibody was delivered to mice i.v. and oral administration of Compound A was initiated upon meeting minimum score requirements and entry into dosage groups. Compound A was administered at 10, 30 or 55 mg/kg p.o. twice daily for two weeks total. Vehicle groups were treated with PEG400 in 1% DMSO; dexamethasone (Dex) was used as a glucocorticoid standard of care reference. Dex was given i.p. in saline alone, three times a week (every 48 hours) at 1.5 mg/kg of total body mass.
Acclimated mice were randomized, pre-bled and measured for baseline inflammation before any studies were initiated. On day 0, DBA/1 female mice were injected i.v. with 100 μl of a saline solution containing 1.5 mg of a 10 mg/ml cocktail of arthritogenic monoclonal antibodies directed against different epitopes of collagen type II (Chondrex, Redmond, Wash.) suspended in saline. […]

[2] = test system: JAK2 (STAT5/pSTAT5 in HEL92 tumor extracts); test: In vivo pharmacodynamic assay, HEL92 tumor extracts; design: species or system mice; settings: 55 mg/kg p.o., 2 hours
From the text: Levels of STAT5 and pSTAT5 were quantitated via western blot. Each lane represents an individual sample.

[3] = test system: carrageenan-induced inflammation; test: Air pouch mouse model of carrageenan-induced inflammation; assay type: in vivo, Balb/c mice; settings: 10, 30 and 55 mg/kg into the pouch, 24 hours, p<0.05 vs vehicle
Protocol: Balb/c mice were induced for air pouch initiation (see materials and methods) using sterile air. Carrageenan at 1% in saline was injected directly into the pouch followed by treatment with Compound A or dexamethasone (Dex) 1 hour later. One-hundred microliters of air pouch fluid was removed 24 hours post-administration. FIG. 5A: Depicts total cell count using 7-AAD exclusion via flow cytometeric analysis and BD TruCount beads. FIG. 5B: Depicts fluid supernatant IL-6 concentration as determined by Luminex® cytokine analysis. FIG. 5C: Depicts hemoglobin content as assessed by the Drabkin's assay. All data shown in the figures represent mean±SEM, and statistics were performed using 2-way ANOVA analysis, *p<0.05, N=5 mice per group tested. To test the impact of Compound A inhibition of JAK2 at the cellular level, the mouse air pouch model (APM) was utilized. Air-filled subcutaneous pouches were maintained under sterile conditions and injected with 1% carrageenan simultaneously with Compound A at 10, 30 and 55 mg/kg. Saline alone (vehicle) or dexamethasone at 1.5 mg/kg were used as controls. […] Briefly, Balb/c mice were injected s.c. with 4 ml of sterile air on day −5, baseline measurements were recorded and mice were randomized into groups. Mice entered the study upon air pouch maintenance by day −3 when 2 ml of sterile air is injected for air pouch maintenance. On day 0 mice were given a 1% carrageenan (Sigma, St. Louis, Mo.) injection suspended in saline directly into the air pouch. This induces a rapid inflammatory influx of primarily neutrophils and macrophage. The test compounds were provided in saline at mg/kg concentrations in 100 μl total volume and introduced directly into the air pouch simultaneously with the carrageenan injection, (1% carrageenan in saline). […] Cellular exudates were centrifuged, supernatants were processed for Luminex cytokine analysis, and the cell pellets were counted for total live and dead cells. […] Hemoglobin content was determined using the Drabkin's assay (Sigma, St. Louis, Mo.).

human TYK2 = human TYK2 (Homo sapiens, UniProt P29597); test: TYK2 kinase enzyme assay, TRF detection; assay type: biochemical; settings: relative to JAK2
Protocol: (§1) The kinase activity of baculovirus-expressed human JAK kinases (JAK1, JAK2, JAK3 or TYK2) was measured using the time-resolved fluorescence (TRF) detection system as described elsewhere [17]. Each 96-well Costar high binding plate (Corning, Corning, N.Y.) was coated with 100 μl/well of 10 μg/ml neutravidin (Pierce Biotechnology, Rockford, Ill.) in TBS at 37° C. for 2 h, followed by 100 μl/well of 1 μg/ml 15-mer peptide substrate (biotinyl-amino-hexanoyl-[sequence]-amide, Infinity Biotech Research and Resource, Aston, Pa.) at 37° C. for 1 h. The kinase assay mixture (total volume=100 μl/well) consisting of 20 mM HEPES (pH 7.2), ATP (Km level for each kinase), 1 mM MnCl2, 0.1% BSA, and test Compound (diluted in DMSO; 2.5% DMSO final in assay) was added to the assay plate. The concentrations of ATP used were as follows: 0.2 μM ATP for JAK1, JAK2 and TYK2; 0.1 μM ATP for JAK3. Enzyme was added and the reaction was allowed to proceed for 20 min at RT. […] Plates were agitated for 10 min and the fluorescence of the resulting solution measured using the PerkinElmer EnVision® 2102 or 2104 multi-label plate reader. IC50 values were determined using the 4-parameter logistic model in XLFit® 4 (IDBS, Ltd., Guildford, UK).

human JAK2 = human JAK2 (Homo sapiens, UniProt O60674); settings: read-out: IC50, JAK2 kinase, isolated human enzyme; average±standard deviation of at least 4 determinations; 0.2 μM ATP
Protocol: IC50 values are reported as the average±standard deviation of at least 4 independent determinations.
as §1

human JAK1 = target: T1, human JAK1 (Homo sapiens, UniProt P23458); test: JAK1 kinase enzyme assay, TRF detection; assay type: biochemical; settings: relative to JAK2
T1 construct: host or cells: baculovirus expression
Protocol: as §1

[4] = CAIA model, total body mass; assay type: in vivo, female DBA/1 mice; settings: all doses
Protocol: FIG. 3E: Depicts the effect of treatment on total body mass in a CAIA model
Acclimated mice were randomized, pre-bled and measured for baseline inflammation before any studies were initiated. On day 0, DBA/1 female mice were injected i.v. with […] of a saline solution containing 1.5 mg of a 10 mg/ml cocktail of arthritogenic monoclonal antibodies directed against different epitopes of collagen type II (Chondrex, Redmond, Wash.) suspended in saline. On day 3, mice were injected with 100 μl of 50 μg of E. coli 0111:B4 LPS (0.5 mg/ml stock) (Chondrex, Redmond, Wash.) i.p. and provided with gel food during recovery. Two days post-LPS treatment monitoring of arthritic paws began; peak arthritis usually occurred 2-3 days following LPS treatment. […] Arthritis clinical score tables can be found described elsewhere. […] All samples were kept at −80° C. until ready to assay. At about 4 weeks, mice were harvested for spleen, serum and arthritic paws for STAT and cytokine quantitation and histological analysis. […]

phospho-STAT3 = test: CAIA model, paw phospho-STAT3 (Luminex bead assay); assay type: in vivo, female DBA/1 mice; settings: for reduction in paw pSTAT3 compared with Dex: within 24 hours of treatment (day 6-7); for phospho-STAT3 levels in the paw: 55 mg/kg
Protocol: DBA/1 female mice were injected i.v. with purified anti-collagen type II antibodies, then given 25 μg of LPS i.p. three days later to induce arthritis by day 5. Mice that met the arthritis criteria score of 1 per paw were entered into the study. Compound A was provided orally, b.i.d., for all doses tested; Dex was provided at 1.5 mg/kg three times a week, i.p.; and vehicle (PEG400+1% DMSO) was provided orally.
The graphed data was generated using Luminex® bead kits, concentration in units per ml per 3 mg of total protein as determined by the BSA assay. The graphed data represents mean±SEM, statistics were performed using 2-way ANOVA analysis.
To investigate the effect of Compound A on levels of phosphorylated STATs and cytokines in the paws of treated mice, a method was developed whereby synovial fluid and cellular joint extracts could be obtained from the paws and ankles of diseased animals for analysis using multiplex bead arrays [32]. […] Consequently, multiplex analysis was used as the primary method of measuring phosphorylated STATs for all experiments described herein.
Briefly, the front (including carpus) and back (including tarsus) right paws were collected and frozen in dry-ice cooled isopentane and stored at −80° C. until use. The paws were cut to 2 mm×2 mm segments and kept on dry-ice in round bottom polypropylene tubes. Seven hundred microliters tissue extraction buffer containing protease inhibitor cocktail (Calbiochem, San Diego, Calif.) and Halt phosphatase inhibitor cocktail (Thermo Scientific, Rockford, Ill.) or Roche phosphatase inhibitor cocktail (Roche, Indianapolis, Ind.) in tissue extraction reagent I (Invitrogen, Carlesbad, Calif.) were added to each sample. Samples were homogenized frozen using a PT 10-35 Polytron homogenizer. After homogenization, samples were centrifuged at 4° C. for 2000×g for 10 minutes and supernatants re-centrifuged at 4° C. at maximum speed, 14,000×g, for 15 minutes. Supernatants were carefully removed to avoid picking up the top layer of lipids/adipose debris. Protein concentration was measured using a BCA protein assay (Pierce, Rockford, Ill.) and adjusted to 3 mg/ml. A minimum of 25 μl of this extraction was used in the above described protocol using the mouse cytokine 10-plex bead kit (Invitrogen, Carlsbad, Calif.) or phosphorylated STAT1, 3, 5a/b, 3-plex kit (Invitrogen, Carlsbad, Calif.).

pSTAT3 = test: Activity against pSTAT3 (another experiment)
serum and paw cytokines = test: CIA model, serum and paw cytokines (Luminex bead assay); assay type: in vivo, female DBA/1 mice
Protocol: Female DBA/1 mice were injected with purified collagen type II in CFA i.d. (intradermal), then boosted with collagen type II in IFA, s.c., (subcutaneous) on day 21 followed by a day 28 LPS injection i.p. to induce arthritis (CIA). Mice that scored a ‘1’ or better for each paw were considered arthritic and entered into the study. Treatments started after 7-10 days of arthritis induction. Compound A was provided orally, b.i.d., for all doses tested; Dex was administered i.p. at 1.5 mg/kg, three times a week; and vehicle (PEG400+1% DMSO) was provided orally, b.i.d.
FIGS. 4C-1 through 4C-4: Depict concentrations of various serum cytokines (IL-12, IL-2, IL-10 and TNFα) in arthritic paws in each treatment group.
Frozen plasma at −80° C. was thawed on ice, vortexed, then centrifuged for 10 minutes to remove debris and aggregates. A total of 25-50 μl of serum was used for Luminex® assays following the manufacturer's instruction. Ten different mouse cytokines were measured using the mouse cytokine 10-plex bead kit (Invitrogen, Carlsbad, Calif.). […]
A more detailed description of this method can be found described elsewhere (Lu et al, 2010, submitted for publication). […] Protein concentration was measured using a BCA protein assay (Pierce, Rockford, Ill.) and adjusted to 3 mg/ml. […]

T1 sequence (P23458 whole entry): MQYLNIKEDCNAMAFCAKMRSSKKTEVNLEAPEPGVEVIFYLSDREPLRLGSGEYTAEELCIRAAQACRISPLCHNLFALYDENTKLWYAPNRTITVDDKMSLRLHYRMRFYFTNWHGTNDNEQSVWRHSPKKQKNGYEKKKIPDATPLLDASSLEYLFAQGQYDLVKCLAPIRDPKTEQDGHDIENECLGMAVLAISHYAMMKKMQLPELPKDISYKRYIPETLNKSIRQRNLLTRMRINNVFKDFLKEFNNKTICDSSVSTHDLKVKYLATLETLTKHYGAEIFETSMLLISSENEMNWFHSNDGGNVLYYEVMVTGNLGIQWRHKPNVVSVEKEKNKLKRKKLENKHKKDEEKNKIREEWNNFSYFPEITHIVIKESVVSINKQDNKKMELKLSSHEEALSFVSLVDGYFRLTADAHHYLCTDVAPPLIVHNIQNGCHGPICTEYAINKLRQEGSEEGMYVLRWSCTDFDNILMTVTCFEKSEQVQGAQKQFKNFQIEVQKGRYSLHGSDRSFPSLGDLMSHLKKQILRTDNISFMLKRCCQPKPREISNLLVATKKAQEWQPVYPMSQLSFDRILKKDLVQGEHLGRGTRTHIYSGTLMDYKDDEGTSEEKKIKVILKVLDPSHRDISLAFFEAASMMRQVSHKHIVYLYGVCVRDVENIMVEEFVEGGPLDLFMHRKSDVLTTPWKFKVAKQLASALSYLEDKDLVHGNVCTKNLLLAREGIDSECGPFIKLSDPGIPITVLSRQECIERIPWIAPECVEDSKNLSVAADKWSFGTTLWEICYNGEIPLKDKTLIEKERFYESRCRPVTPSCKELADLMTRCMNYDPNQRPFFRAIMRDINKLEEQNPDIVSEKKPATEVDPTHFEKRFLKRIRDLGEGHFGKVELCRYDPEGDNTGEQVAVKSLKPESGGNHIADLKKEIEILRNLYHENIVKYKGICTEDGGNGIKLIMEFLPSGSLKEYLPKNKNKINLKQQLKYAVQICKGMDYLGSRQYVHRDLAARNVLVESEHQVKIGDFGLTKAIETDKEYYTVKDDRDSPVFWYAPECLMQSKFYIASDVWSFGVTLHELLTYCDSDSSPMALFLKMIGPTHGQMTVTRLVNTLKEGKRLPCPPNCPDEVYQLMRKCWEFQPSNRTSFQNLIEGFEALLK
Sequence of human JAK2 (O60674 whole entry): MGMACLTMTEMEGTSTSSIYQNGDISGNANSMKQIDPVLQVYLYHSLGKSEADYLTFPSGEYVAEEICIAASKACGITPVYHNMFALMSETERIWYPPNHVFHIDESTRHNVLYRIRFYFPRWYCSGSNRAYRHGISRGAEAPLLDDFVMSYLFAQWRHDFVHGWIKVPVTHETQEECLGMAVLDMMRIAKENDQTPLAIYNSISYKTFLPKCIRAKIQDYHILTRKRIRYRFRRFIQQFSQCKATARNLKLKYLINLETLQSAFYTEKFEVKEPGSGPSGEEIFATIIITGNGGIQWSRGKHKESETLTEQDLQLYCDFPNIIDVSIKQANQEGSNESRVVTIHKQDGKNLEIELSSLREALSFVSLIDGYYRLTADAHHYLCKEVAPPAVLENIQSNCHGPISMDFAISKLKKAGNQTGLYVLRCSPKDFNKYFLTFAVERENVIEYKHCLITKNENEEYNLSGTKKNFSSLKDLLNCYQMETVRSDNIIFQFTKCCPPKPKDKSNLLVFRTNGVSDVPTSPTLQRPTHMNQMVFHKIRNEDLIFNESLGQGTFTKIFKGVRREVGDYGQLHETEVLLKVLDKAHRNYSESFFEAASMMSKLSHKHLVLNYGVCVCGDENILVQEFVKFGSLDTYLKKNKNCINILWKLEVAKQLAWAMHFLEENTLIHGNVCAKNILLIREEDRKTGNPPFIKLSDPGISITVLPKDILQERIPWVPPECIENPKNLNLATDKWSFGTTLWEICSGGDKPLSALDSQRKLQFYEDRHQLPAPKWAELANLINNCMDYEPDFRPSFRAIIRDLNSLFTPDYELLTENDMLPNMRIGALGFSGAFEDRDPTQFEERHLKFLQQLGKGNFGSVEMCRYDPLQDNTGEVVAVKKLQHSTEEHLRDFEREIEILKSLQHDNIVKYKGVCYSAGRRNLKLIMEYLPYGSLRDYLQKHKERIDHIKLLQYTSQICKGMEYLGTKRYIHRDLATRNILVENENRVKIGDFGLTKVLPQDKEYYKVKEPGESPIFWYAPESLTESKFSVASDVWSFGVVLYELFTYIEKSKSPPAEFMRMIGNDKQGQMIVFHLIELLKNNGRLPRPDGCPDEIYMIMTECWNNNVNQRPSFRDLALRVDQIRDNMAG
Sequence of human TYK2 (P29597 whole entry): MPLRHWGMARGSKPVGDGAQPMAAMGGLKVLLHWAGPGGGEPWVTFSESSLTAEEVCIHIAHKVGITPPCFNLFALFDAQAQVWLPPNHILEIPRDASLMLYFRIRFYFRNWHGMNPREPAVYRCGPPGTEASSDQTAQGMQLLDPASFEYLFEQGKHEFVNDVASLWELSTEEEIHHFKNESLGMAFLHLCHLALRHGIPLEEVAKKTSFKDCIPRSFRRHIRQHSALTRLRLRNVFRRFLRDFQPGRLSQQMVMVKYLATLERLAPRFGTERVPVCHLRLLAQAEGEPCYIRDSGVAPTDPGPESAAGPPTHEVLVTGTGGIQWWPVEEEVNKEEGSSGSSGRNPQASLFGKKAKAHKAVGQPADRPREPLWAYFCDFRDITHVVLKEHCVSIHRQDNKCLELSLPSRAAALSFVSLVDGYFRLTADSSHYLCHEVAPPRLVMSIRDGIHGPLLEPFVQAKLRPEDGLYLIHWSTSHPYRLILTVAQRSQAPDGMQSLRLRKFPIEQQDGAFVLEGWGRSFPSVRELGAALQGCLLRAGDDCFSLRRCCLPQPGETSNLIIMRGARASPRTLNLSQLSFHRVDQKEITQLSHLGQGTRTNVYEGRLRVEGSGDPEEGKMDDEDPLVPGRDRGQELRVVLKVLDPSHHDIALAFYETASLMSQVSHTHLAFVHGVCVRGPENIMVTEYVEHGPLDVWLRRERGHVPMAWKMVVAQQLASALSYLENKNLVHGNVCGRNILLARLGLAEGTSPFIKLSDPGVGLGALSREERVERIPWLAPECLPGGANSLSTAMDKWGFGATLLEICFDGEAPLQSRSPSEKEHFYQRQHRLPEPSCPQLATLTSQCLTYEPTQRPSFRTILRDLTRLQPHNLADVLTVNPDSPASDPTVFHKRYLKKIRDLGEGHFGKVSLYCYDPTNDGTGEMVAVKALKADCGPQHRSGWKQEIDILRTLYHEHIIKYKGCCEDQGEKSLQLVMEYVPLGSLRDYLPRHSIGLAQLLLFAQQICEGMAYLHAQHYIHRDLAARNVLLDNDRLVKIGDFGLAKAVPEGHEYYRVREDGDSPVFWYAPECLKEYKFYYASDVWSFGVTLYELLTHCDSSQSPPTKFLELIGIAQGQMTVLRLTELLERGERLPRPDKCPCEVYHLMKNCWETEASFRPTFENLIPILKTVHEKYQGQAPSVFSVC

CN1CCN(c2cccc(Nc3nc4c(-c5ccc(S(C)(=O)=O)cc5)cccn4n3)c2)CC1 [Compound A, [8-(4-Methanesulfonyl-phenyl)-[1,2,4]triazolo[1,5-a]pyridin-2-yl]-[3-(4-methyl-piperazin-1-yl)-phenyl]-amine]
drop in mean paw thickness or size compared to vehicle [1]: 1.3 fold | reduction in total clinical score compared to vehicle [1]: 2.4 fold | inhibition of JAK2 in vivo (pSTAT5/STAT5) [2]: inhibit JAK2 in vivo | air pouch fluid IL-6 expression [3]: inhibit the expression of IL-6 to below that of Dex | angiogenesis, total hemoglobin content (Drabkin's assay) [3]: angiogenesis was impacted | cellular accumulation in the air pouch (total cell count) [3]: significantly decreased cellular accumulation in the air pouch | selectivity against TYK2 (human TYK2): > 800 fold | IC50 (human JAK2): 1.8 ± 0.6 nM | selectivity versus JAK1 (human JAK1): > 40 fold | total body mass [4]: not significantly different from that of vehicle-treated animals | reduction in paw pSTAT3 compared with Dex (phospho-STAT3; 30 mg/kg b.i.d., p<0.01 vs vehicle): significantly greater than that of Dex | reduction in paw pSTAT3 compared with Dex (phospho-STAT3; 55 mg/kg b.i.d., p<0.001 vs vehicle): significantly greater than that of Dex | phospho-STAT3 levels in the paw (phospho-STAT3; 2 hours after administration): nearly abolished | phospho-STAT3 levels in the paw (phospho-STAT3; 6 hours post-administration): only slowly began to recover | paw pSTAT3 expression, remainder of the experiment (phospho-STAT3; b.i.d. treatment): reduced pSTAT3 expression to the lower limits of the assay | activity against pSTAT3 (pSTAT3): exhibited some activity against pSTAT3 | serum and paw cytokines (IL-12, IL-2, IL-10, TNFα, IL-4) and spleen IL-12 (serum and paw cytokines; all three doses): decrease in several serum and paw cytokines | serum IL-12 level (serum and paw cytokines; all three doses (30, 55, 100 mg/kg)): significantly decrease the level of IL-12 comparable to that observed with Dex
